This note sets out measurements from patent publication EP4656185A1, “NOVEL MOLECULAR ASSEMBLY OF AXITINIB” (Scai Therapeutics Co., Ltd., priority 2024, dated 2025).

The series can be described thus: Solubility (dissolution concentration) of axitinib polymorph at pH 1 and pH 2. It counts as physicochemical. As for the experimental part:
Experimental Example 4. Solubility of new axitinib polymorph (SCAI-Form)
Method for measuring solubility at pH 1: Stirred for 15 minutes at a concentration of 5 mg/mL, and then filtered, diluted 10 times with DW, and analyzed. (The value calculated as [measured value x 10] is described in the results)
Method for measuring solubility at pH 2: Stirred for 15 minutes at a concentration of 1 mg/mL, and then filtered, analyzed, and shown in Table 6.

Consider “6-[2-(methylcarbamoyl)phenylsulfanyl]-3-E-[2-(pyridin-2-yl)ethenyl]indazole [API]”, for which the “Dissolution concentration at pH 1” value (pH 1, stirred for 15 minutes at 5 mg/mL, filtered, diluted 10 times with DW, value = measured value x 10) is given as 2.661 mg/mL. Besides, under “pH 2, stirred for 15 minutes at 1 mg/mL, filtered, analyzed”, the “Dissolution concentration at pH 2” value was 0.073 mg/mL.

As for `CNC(=O)c1ccccc1Sc1ccc2c(/C=C/c3ccccn3)n[nH]c2c1` [SCAI-Form, axitinib], the “solubility of SCAI-Form relative to API” value (comparison with Axitinib API, from Table 6 (pH 1 and pH 2)) is on record as “about twice higher”.
